Test system: phospholipase D
Assay: Substrate specificity of phospholipase D (choline release, choline oxidase/peroxidase colorimetry at 500 nm)
Format: biochemical, Streptomyces chromofuscus
Conditions: substrate emulsion 10 mM, 0.1 ml; 37°C, 10 minutes, pH 8.0; relative to activity on lysolecithin as 100
Experimental: To the reaction mixture having a composition as above was added 0.05 ml of the enzyme solution. After reaction it 37°C for 10 minutes, the mixture was boiled for 5 minutes to stop the reaction. The reaction solution was cooled to 37°C. Then, 0.1 ml of 4-aminoantipyrine (3 mg/ml), 0.1 ml of Phenol (2 mg/ml), 0.1 ml of peroxidase (2 U/ml), 0.1 ml of choline oxidase (30 U/ml) and 0.1 ml of water were added to the solution, the reaction was conducted at 37°C for 20 minutes before adding 2 ml of 1% Triton X100 to the reaction mixture for measuring the absorbance at 500 nm. It is defined that 1 Unit (U) of phospholipase D has an enzyme activity of producing 1 […] of choline. The enzyme activity is calculated from the following equation: U/ml = ΔA₅₀₀ x 0.55 [formula] wherein ΔA₅₀₀ denotes the absorbance at 500 nm.
The same procedure as described above for the reaction solution for the measurement of the activity was repeated except that emulsions (10 mM, 0.1 ml) of lecithin, lysolecithin and sphingomyelin, respectively, as substrates were used. The amount of choline was determined, and the relative enzyme activities are calculated in terms of the enzyme activity to lysolecithin as 100.

In order of rising “Relative Activity” value:
1. Sphingomyelin  19%
2. phosphatidylcholine [Lecithin]  51%
3. Lysolecithin  100%

Reference: patent publication EP0435725B1, “DNA having the genetic information of phospholipase D and its use” (Asahi Kasei Kogyo Kabushiki Kaisha, priority 1989, dated 1991)
